# ChEMBL document CHEMBL3621062, “Discovery, SAR, and X-ray Binding Mode Study of BCATm Inhibitors from a Novel DNA-Encoded Library” (ACS Med Chem Lett, 2015)
# pIC50: −log10 of the molar value.
# Target: T1, Branched-chain-amino-acid aminotransferase, mitochondrial (Homo sapiens, UniProt O15382)
# T1 sequence (O15382 whole entry): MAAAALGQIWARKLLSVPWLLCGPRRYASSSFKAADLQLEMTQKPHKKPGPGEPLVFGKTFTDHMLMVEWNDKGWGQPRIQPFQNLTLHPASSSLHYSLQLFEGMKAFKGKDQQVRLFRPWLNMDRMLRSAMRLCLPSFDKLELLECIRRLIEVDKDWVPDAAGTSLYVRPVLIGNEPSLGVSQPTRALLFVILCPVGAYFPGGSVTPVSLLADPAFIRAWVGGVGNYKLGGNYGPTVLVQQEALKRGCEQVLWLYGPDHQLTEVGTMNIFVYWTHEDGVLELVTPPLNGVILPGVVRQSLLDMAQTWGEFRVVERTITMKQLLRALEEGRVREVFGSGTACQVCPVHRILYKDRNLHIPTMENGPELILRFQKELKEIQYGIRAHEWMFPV
# Experiment: Inhibition of human BCATm after 10 mins by fluorescent assay
row,pIC50,SMILES
1,5.41,CNC(=O)c1ccc(-c2ccccc2NS(C)(=O)=O)cc1OC1CCN(C(=O)c2ccc(Br)s2)C1 (racemic)
2,5.55,CNC(=O)c1ccc(-c2ccccc2NS(C)(=O)=O)cc1O[C@@H]1CCN(C(=O)c2ccc(Cl)s2)C1
3,< 4.00,CNC(=O)c1ccc(-c2cccc(C(=O)O)c2)cc1OC1CCN(C(=O)c2cc(Br)ccc2N)C1 (stereo not given)

# The remaining lines, values behind:
row,SMILES,pIC50
1,CNC(=O)c1ccc(-c2cccc(C(=O)O)c2)cc1OC1CCN(C(=O)c2cc(Br)ccc2NC(=O)OC(C)(C)C)C1 (stereo not given),< 4.00
2,CNC(=O)c1ccc(-c2ccccc2NS(C)(=O)=O)cc1O[C@@H]1CCN(C(=O)c2ccc(Br)s2)C1,5.70
3,CNC(=O)c1ccccc1OC1CCN(C(=O)c2ccc(Br)s2)C1 (stereo not given),< 4.00
4,CNC(=O)c1ccc(-c2ccccc2C)cc1O[C@@H]1CCN(C(=O)c2ccc(Br)s2)C1,4.19
5,CNC(=O)c1ccc(-c2ccccc2)cc1O[C@@H]1CCN(C(=O)c2ccc(Br)s2)C1,< 4.00
6,CNC(=O)c1ccc(-c2cccc(C(=O)O)c2)cc1OC1CCN(C(=O)c2ccc(Br)s2)C1 (stereo not given),4.13
7,CNC(=O)c1ccc(-c2ccccc2NS(C)(=O)=O)cc1O[C@@H]1CCN(C(=O)c2ccc(C#N)s2)C1,4.82
